According to patent publication US10118895B2, “ROR gamma (RORγ) modulators” (LEAD PHARMA HOLDING B.V., priority 2015, dated 2018):

Target: T1, RORγ (Homo sapiens, UniProt P51449)
T1 construct: expressed in transfected cells; host or cells: 293FT cells (Invitrogen), expression vector pFN26A (Promega)
T1 sequence (P51449 269-508 limits assumed): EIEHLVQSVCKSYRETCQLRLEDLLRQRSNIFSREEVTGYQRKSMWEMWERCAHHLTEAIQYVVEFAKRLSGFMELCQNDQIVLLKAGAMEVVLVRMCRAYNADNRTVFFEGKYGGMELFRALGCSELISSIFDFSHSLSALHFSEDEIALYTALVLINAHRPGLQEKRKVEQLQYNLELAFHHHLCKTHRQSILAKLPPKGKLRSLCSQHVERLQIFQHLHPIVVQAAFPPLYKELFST
Assay: RORγ GAL4 reporter gene assay (luciferase readout, 293FT cells)
Type: cell-based
Settings: inhibition of RORγ (GAL4-RORγ-LBD) in transfected 293FT cells, luciferase signal, overnight incubation; read-out: mean pIC50 (converted)
Protocol: RORγ GAL4 Reporter Gene Assay
Example inhibitors 1-38 were tested for their ability to inhibit RORγ activity in a RORγ GAL4 reporter gene assay. The assay procedure and results are described below.
RORγ GAL4 Reporter Gene Assay Description
A GAL4 one-hybrid reporter system employing luciferase readout was established to determine inhibition of RORγ in 293FT cells. The RORγ ligand-binding domain (LBD) was fused to the yeast GAL4 DNA binding domain (DBD) and placed under the control of the human cytomegalovirus (CMV) immediate early promoter, using expression vector pFN26A (Promega) and standard recombinant DNA cloning methods. To serve as a control in the assay, a similar vector was generated in which the GAL4-DBD was fused to Herpes simplex virus protein 16 (VP16), a constitutive transcriptional activator.
To monitor the inhibitory effect of compounds on RORγ, a transcriptional reporter construct was used. The pGL4.35 vector (Promega) contains nine copies of the GAL4 Upstream Activator Sequence (UAS). This sequence drives the transcription of the luciferase reporter gene luc2P in response to binding of a fusion protein containing the GAL4 DNA binding domain, as for example expressed by the GAL4-RORγ-LBD and GAL4-VP16 expression vectors described above. To allow a GAL4 fusion protein to drive the expression of the luciferase reporter, the pGL4.35 expression vector and the appropriate GAL4 fusion protein expression vector were bulk transfected in the 293FT cells using standard transfection techniques.
The day after transfection, cells were plated into 96 well plates, test compound was added and the plates were incubated overnight. Subsequently, the firefly luciferase activity was quantified using luciferase detection reagent and luminescence readout.
Detailed Assay Description
293FT cells (Invitrogen) were transfected with a GAL4 fusion protein expression vector (as described above) and the transcriptional reporter construct (pGL4.35, Promega). 60 μL of TransIT-293 transfection reagent (Mirus Bio) was added drop wise to 1500 μl Opti-MEM I Reduced Serum Medium (Invitrogen) and incubated at RT (RT) for 5 to 20 minutes. 1500 μL of this reagent mixture was added to 5 μg of GAL4 fusion protein expression vector and 5 μg of the transcriptional reporter construct, and incubated at RT for 20 minutes.
To harvest 293FT cells from a T75 flask, first the culture medium was taken off the cells. Subsequently, the cells were washed with Phosphate Buffered Saline (PBS) (Lonza), after which the PBS was removed. To dissociate the cells, 1 ml of TrypLE Express (Invitrogen) was added to the flask, followed by incubation at RT until the cells visually started to detach. Cells were collected in 5 mL of assay medium (DMEM culture medium (Lonza), 10% dialyzed FBS (Invitrogen) and Pen/Strep (Lonza)) to achieve a single cell suspension. 10×10^6 cells were spun down and re-suspended in 10 mL of assay medium. Subsequently, the cell suspension was added to the transfection mix tube, and then transferred as a whole to a T75 flask (Greiner), followed by overnight (16-24 hours) incubation at 37° C. and 5% CO2.
For compound screening, the cells were harvested (as described above) and counted. 13×10^6 cells were spun down, the supernatant was aspirated and the cells were re-suspended in 17.3 mL of assay medium obtaining a cell suspension of 0.75×10^6 cells/mL. 80 μL of cell suspension (60,000 cells) was plated per well into a white, flat bottom, tissue culture treated, 96 well screening plates (Greiner).
Test compounds were diluted, starting from a 10 mM dimethylsulfoxide (DMSO) stock solution, to serial dilutions in DMSO at 500× the final test concentration. Subsequently, these solutions were diluted to 5× the final test concentration in two 10-fold-dilution steps in assay medium. The final DMSO concentration of the 5× test compound solution was 1%. […]

`CCC(O)(c1ccc(NC(=O)Cc2ccc(S(=O)(=O)CC3CC3)nc2)cc1)C(F)(F)F` (racemic) [Example 20, 2-[6-(cyclopropylmethylsulfonyl)-3-pyridyl]-N-[4-[1-hydroxy-1-(trifluoromethyl)propyl]phenyl]acetamide] and `CCCC(O)(c1ccc(NC(=O)Cc2ccc(S(=O)(=O)CC3CC3)nc2)cc1)C(F)(F)F` (stereo not shown) [Example 11, 2-[6-(cyclopropylmethylsulfonyl)-3-pyridyl]-N-[4-[1-hydroxy-1-(trifluoromethyl)butyl]phenyl]acetamide] cannot be ordered by IC50: ≤ 1000 nM for the first, ≤ 1000 nM for the second.

`COCCOC(c1ccc(NC(=O)Cc2ccc(S(=O)(=O)CC3CC3)nc2)cc1)(C(F)(F)F)C(F)(F)F` [Example 27, 2-[6-(cyclopropylmethylsulfonyl)-3-pyridyl]-N-[4-[2,2,2-trifluoro-1-(2-methoxyethoxy)-1-(trifluoromethyl)ethyl]phenyl]acetamide] and `O=C(Cc1ccc(S(=O)(=O)CC2CC2)nc1)Nc1ccc(C(OCCO)(C(F)(F)F)C(F)(F)F)cc1` [Example 28, 2-[6-(cyclopropylmethylsulfonyl)-3-pyridyl]-N-[4-[2,2,2-trifluoro-1-(2-hydroxyethoxy)-1-(trifluoromethyl)ethyl]phenyl]acetamide] cannot be ordered by IC50: ≤ 100 nM for the first, ≤ 1000 nM for the second.

`O=C(Cc1ccc(S(=O)(=O)CC2CC2)nc1)Nc1ccc(C(O)(C(F)(F)F)C(F)(F)F)c(F)c1` [Example 4, 2-[6-(cyclopropylmethylsulfonyl)-3-pyridyl]-N-[3-fluoro-4-[2,2,2-trifluoro-1-hydroxy-1-(trifluoromethyl)ethyl]phenyl]acetamide] and `O=C(Cc1ccc(S(=O)(=O)CC2CC2)nc1)Nc1ccc(C(O)(C(F)(F)F)C(F)(F)F)c(Cl)c1` [Example 5, N-[3-chloro-4-[2,2,2-trifluoro-1-hydroxy-1-(trifluoromethyl)ethyl]phenyl]-2-[6-(cyclopropylmethylsulfonyl)-3-pyridyl]acetamide] cannot be ordered by IC50: ≤ 100 nM for the first, ≤ 100 nM for the second.

`O=C(Cc1ccc(S(=O)(=O)CC2CC2)nc1)Nc1ccc(C(O)(C2CC2)C2CC2)cc1` [Example 18, 2-[6-(cyclopropylmethylsulfonyl)-3-pyridyl]-N-[4-[dicyclopropyl(hydroxy)methyl]phenyl]acetamide] and `O=C(Cc1ccc(S(=O)(=O)CC2CC2)nc1)Nc1ccc(C(O)(CC2CCCCC2)C(F)(F)F)cc1` (stereo not shown) [Example 16, N-[4-[1-(cyclohexylmethyl)-2,2,2-trifluoro-1-hydroxy-ethyl]phenyl]-2-[6-(cyclopropylmethylsulfonyl)-3-pyridyl]acetamide] cannot be ordered by IC50: ≤ 1000 nM for the first, ≤ 1000 nM for the second.

`CC(C)OC(c1ccc(NC(=O)Cc2ccc(S(=O)(=O)CC3CC3)cn2)cc1)(C(F)(F)F)C(F)(F)F` [Example 30, 2-[5-(cyclopropylmethylsulfonyl)-2-pyridyl]-N-[4-[2,2,2-trifluoro-1-isopropoxy-1-(trifluoromethyl)ethyl]phenyl]acetamide] and `COC(c1ccc(NC(=O)Cc2ccc(S(=O)(=O)CC3CC3)cn2)cc1)(C(F)(F)F)C(F)(F)F` [Example 34, 2-[5-(cyclopropylmethylsulfonyl)-2-pyridyl]-N-[4-[2,2,2-trifluoro-1-methoxy-1-(trifluoromethyl)ethyl]phenyl]acetamide] cannot be ordered by IC50: ≤ 100 nM for the first, ≤ 100 nM for the second.

`COc1cc(C(O)(C(F)(F)F)C(F)(F)F)ccc1NC(=O)Cc1ccc(S(=O)(=O)CC2CC2)nc1` [Example 9, 2-[6-(cyclopropylmethylsulfonyl)-3-pyridyl]-N-[2-methoxy-4-[2,2,2-trifluoro-1-hydroxy-1-(trifluoromethyl)ethyl]phenyl]acetamide] and `Cc1cc(C(O)(C(F)(F)F)C(F)(F)F)ccc1NC(=O)Cc1ccc(S(=O)(=O)CC2CC2)nc1` [Example 7, 2-[6-(cyclopropylmethylsulfonyl)-3-pyridyl]-N-[2-methyl-4-[2,2,2-trifluoro-1-hydroxy-1-(trifluoromethyl)ethyl]phenyl]acetamide] cannot be ordered by IC50: ≤ 1000 nM for the first, ≤ 1000 nM for the second.

`O=C(Cc1ccc(S(=O)(=O)CC2CC2)nc1)Nc1ccc(C(O)(C(F)(F)F)C(F)(F)F)cc1` [Example 1, 2-[6-(cyclopropylmethylsulfonyl)-3-pyridyl]-N-[4-[2,2,2-trifluoro-1-hydroxy-1-(trifluoromethyl)ethyl]phenyl]acetamide] and `O=C(Cc1ccc(S(=O)(=O)CC2CC2(F)F)nc1)Nc1ccc(C(O)(C(F)(F)F)C(F)(F)F)cc1` (racemic) [(−)-22, (−)-2-[6-[(2,2-difluorocyclopropyl)methylsulfonyl]-3-pyridyl]-N-[4-[2,2,2-trifluoro-1-hydroxy-1-(trifluoromethyl)ethyl]phenyl]acetamide] cannot be ordered by IC50: ≤ 100 nM for the first, ≤ 1000 nM for the second.

`O=C(Cc1ncc(S(=O)(=O)CC2CC2)cn1)Nc1ccc(C(O)(C(F)(F)F)C(F)(F)F)cc1` [Example 35, 2-[5-(cyclopropylmethylsulfonyl)pyrimidin-2-yl]-N-[4-[2,2,2-trifluoro-1-hydroxy-1-(trifluoromethyl)ethyl]phenyl]acetamide] and `Cc1cc(S(=O)(=O)CC2CC2)ncc1CC(=O)Nc1ccc(C(O)(C(F)(F)F)C(F)(F)F)cc1` [Example 23, 2-[6-(cyclopropylmethylsulfonyl)-4-methyl-3-pyridyl]-N-[4-[2,2,2-trifluoro-1-hydroxy-1-(trifluoromethyl)ethyl]phenyl]acetamide] cannot be ordered by IC50: ≤ 1000 nM for the first, ≤ 1000 nM for the second.

`O=C(Cc1ccc(S(=O)(=O)CC2CC2)nn1)Nc1ccc(C(O)(C(F)(F)F)C(F)(F)F)cc1` [Example 37, 2-[6-(cyclopropylmethylsulfonyl)pyridazin-3-yl]-N-[4-[2,2,2-trifluoro-1-hydroxy-1-(trifluoromethyl)ethyl]phenyl]acetamide] and `COc1cc(NC(=O)Cc2ccc(S(=O)(=O)CC3CC3)nc2)ccc1C(O)(C(F)(F)F)C(F)(F)F` [Example 6, 2-[6-(cyclopropylmethylsulfonyl)-3-pyridyl]-N-[3-methoxy-4-[2,2,2-trifluoro-1-hydroxy-1-(trifluoromethyl)ethyl]phenyl]acetamide] cannot be ordered by IC50: ≤ 1000 nM for the first, ≤ 1000 nM for the second.

For `O=C(Cc1ccc(S(=O)(=O)CC2CC2)nc1)Nc1ccc(C(OCC2COC2)(C(F)(F)F)C(F)(F)F)cc1` [Example 26, 2-[6-(cyclopropylmethylsulfonyl)-3-pyridyl]-N-[4-[2,2,2-trifluoro-1-(oxetan-3-ylmethoxy)-1-(trifluoromethyl)ethyl]phenyl]acetamide], the IC50 was ≤ 1000 nM.
